Laboratory results: patent EP0326331B1, “Substituted quinolines and cinnolines” (Dow AgroSciences LLC, priority 1988, dated 1989)

Key:
Format in all cases: in vivo
[1] = tested on: Erysiphe graminis tritici (powdery mildew); assay: Test 1 greenhouse foliar spray screen, powdery mildew on wheat; conditions: disease control rating, foliar spray on wheat, 400 ppm (+++ at 100 ppm)
[2] = tested on: Pyricularia oryzae (rice blast); assay: whole plant or invertebrate; conditions: disease control rating, foliar spray on rice, 400 ppm (+++ at 100 ppm)
[3] = tested on: Puccinia recondita tritici (leaf rust); assay: Test 1 greenhouse foliar spray screen, leaf rust on wheat; conditions: disease control rating, foliar spray on wheat, 400 ppm (+++ at 100 ppm)
[4] = tested on: Botrytis cinerea (gray mold); assay: Test 1 greenhouse foliar spray screen, gray mold on grape berries; conditions: disease control rating, spray on grape berries, 400 ppm (+++ at 100 ppm)
[5] = tested on: Pseudoperonospora cubensis (downy mildew); assay: Test 1 greenhouse foliar spray screen, downy mildew on squash; conditions: disease control rating, foliar spray on squash, 400 ppm (+++ at 100 ppm)
[6] = tested on: Cercospora beticola (leaf spot); assay: Test 1 greenhouse foliar spray screen, leaf spot on sugar beet; conditions: disease control rating, foliar spray on sugar beet, 400 ppm (+++ at 100 ppm)
[7] = tested on: Venturia inaequalis (apple scab); assay: Test 1 greenhouse foliar spray screen, apple scab on apple seedling; conditions: disease control rating, foliar spray on apple seedling, 400 ppm (+++ at 100 ppm)
[8] = tested on: Septoria tritici (leaf blotch); assay: Test 1 greenhouse foliar spray screen, leaf blotch on wheat; conditions: disease control rating, foliar spray on wheat, 400 ppm (+++ at 100 ppm)
[9] = tested on: southern armyworm (Spodopetra eridania Cramer); assay: Mite/insect screen, SAW; conditions: percent mortality, SAW; for mortality at 200 ppm / SAW RESULTS %: SM & MA RATE 200 PPM
How it was run: (§1)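 Activity is expressed as percent mortality at the indicated spray concentrations. Plants are sprayed to runoff on upper and lower leaf surfaces with aqueous dilutions of an acetone/alcohol emulsifiable formulation, then dried for one hour.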

[10] = tested on: Twospotted spider mites (Tetranychus urticae Koch); assay: Mite/insect screen, SM; conditions: percent mortality, SAW; for mortality at 200 ppm / SM RESULTS %: SM & MA RATE 200 PPM
How it was run: as §1

[11] = tested on: melon aphids (Aphis gossypii Glover); assay: Mite/insect screen, MA; conditions: percent mortality, SAW; for mortality at 200 ppm / MA RESULTS %: SM & MA RATE 200 PPM
How it was run: as §1

[12] = tested on: corn rootworm; assay: Mite/insect screen, CRW; conditions: percent mortality; for mortality at 12 ppm / CRW RESULTS %: CRW RATE 12.00 PPM
How it was run: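 Each compound, taken up in an emulsifier-containing acetone/alcohol mixture and diluted in water to the stated concentrations, was assessed for percent kill following standard exposure times.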

[13] = Spodoptera eridania, read-out: SAW RESULTS %
[14] = Tetranychus urticae, read-out: SM RESULTS %
[15] = Aphis gossypii, read-out: MA RESULTS %

SMILES	POWD MDEW [1]	RICE BLAST [2]	LEAF RUST [3]	GRAY MOLD [4]	DOWN MDEW [5]	LEAF SPOT [6]	APPL SCAB [7]	LEAF BLOT [8]	mortality at 200 ppm [9, 13] [%]	mortality at 400 ppm ([9]; Spodoptera eridania, SM & MA RATE 400 PPM, read-out: SAW RESULTS %) [%]	mortality at 200 ppm [10, 14] [%]	mortality at 400 ppm ([10]; Tetranychus urticae, SM & MA RATE 400 PPM, read-out: SM RESULTS %) [%]	mortality at 200 ppm [11, 15] [%]	mortality at 400 ppm ([11]; Aphis gossypii, SM & MA RATE 400 PPM, read-out: MA RESULTS %) [%]	mortality at 12 ppm ([12]; read-out: CRW RESULTS %) [%]	mortality at 24 ppm ([12]; CRW RATE 24.00 PPM, read-out: CRW RESULTS %) [%]	SAW RESULTS % [9] [%]	SM RESULTS % [10] [%]	MA RESULTS % [11] [%]	CRW RESULTS % [12] [%]
CCc1ccc2nccc(NCCC3=CCCCC3)c2c1 [Example 145, N-[2-(1-cyclohexenyl)ethyl]-6-ethyl-4-quinolinamine]	- (0-19% control at 400 ppm)	+ (20-89% control at 400 ppm)	+ (20-89% control at 400 ppm)	- (0-19% control at 400 ppm)	+++ (90-100% control at 100 ppm)	+ (20-89% control at 400 ppm)	- (0-19% control at 400 ppm)	- (0-19% control at 400 ppm)	0	0	0	0	0	0	0	0	–	–	–	–
c1csc(CCNc2ccnc3ccccc23)c1 [Example 147, N-[2-(2-thienyl)ethyl]-4-quinolinamine]	- (0-19% control at 400 ppm)	+ (20-89% control at 400 ppm)	+ (20-89% control at 400 ppm)	- (0-19% control at 400 ppm)	+++ (90-100% control at 100 ppm)	- (0-19% control at 400 ppm)	- (0-19% control at 400 ppm)	- (0-19% control at 400 ppm)	0	–	0	–	0	–	0	–	–	–	–	–
c1ccc2c(NCCc3ccsc3)ccnc2c1 [Example 148, N-[2-(3-thienyl)ethyl]-4-quinolinamine]	- (0-19% control at 400 ppm)	+ (20-89% control at 400 ppm)	+ (20-89% control at 400 ppm)	- (0-19% control at 400 ppm)	++ (90-100% control at 400 ppm)	+ (20-89% control at 400 ppm)	- (0-19% control at 400 ppm)	- (0-19% control at 400 ppm)	0	–	0	–	0	–	0	–	–	–	–	–
Fc1cc(F)c2nccc(NCCc3cccs3)c2c1 [Example 149, 6,8-difluoro-N-[2-(2-thienyl)ethyl]-4-quinolinamine]	+ (20-89% control at 400 ppm)	+ (20-89% control at 400 ppm)	++ (90-100% control at 400 ppm)	- (0-19% control at 400 ppm)	++ (90-100% control at 400 ppm)	+++ (90-100% control at 100 ppm)	- (0-19% control at 400 ppm)	+ (20-89% control at 400 ppm)	0	–	0	–	0	–	0	–	–	–	–	–
Fc1cc(F)c2nccc(NCCc3ccsc3)c2c1 [Example 150, 6,8-difluoro-N-[2-(3-thienyl)ethyl]-4-quinolinamine]	+ (20-89% control at 400 ppm)	+ (20-89% control at 400 ppm)	++ (90-100% control at 400 ppm)	- (0-19% control at 400 ppm)	++ (90-100% control at 400 ppm)	+++ (90-100% control at 100 ppm)	- (0-19% control at 400 ppm)	+++ (90-100% control at 100 ppm)	0	–	0	–	0	–	0	–	0	0	0	0
c1ccc2c(CCNc3ccnc4ccccc34)cccc2c1 [Example 151, N-[2-(1-naphthyl)ethyl]-4-quinolinamine]	+ (20-89% control at 400 ppm)	+ (20-89% control at 400 ppm)	++ (90-100% control at 400 ppm)	- (0-19% control at 400 ppm)	+++ (90-100% control at 100 ppm)	+ (20-89% control at 400 ppm)	- (0-19% control at 400 ppm)	+ (20-89% control at 400 ppm)	0	–	0	–	0	–	0	–	–	–	–	–
c1ccc2cc(CCNc3ccnc4ccccc34)ccc2c1 [Example 152, N-[2-(2-naphthyl)ethyl]-4-quinolinamine]	++ (90-100% control at 400 ppm)	+++ (90-100% control at 100 ppm)	++ (90-100% control at 400 ppm)	- (0-19% control at 400 ppm)	+++ (90-100% control at 100 ppm)	+++ (90-100% control at 100 ppm)	- (0-19% control at 400 ppm)	+++ (90-100% control at 100 ppm)	0	–	0	–	0	–	0	–	0	0	0	0
FC(F)(F)c1ccc2c(NCCc3cccs3)ccnc2c1 [Example 153, N-[2-(2-thienyl)ethyl]-7-(trifluoromethyl)-4-quinolinamine]	+ (20-89% control at 400 ppm)	++ (90-100% control at 400 ppm)	++ (90-100% control at 400 ppm)	- (0-19% control at 400 ppm)	+ (20-89% control at 400 ppm)	- (0-19% control at 400 ppm)	- (0-19% control at 400 ppm)	- (0-19% control at 400 ppm)	0	–	0	–	0	–	0	–	–	–	–	–
